This passage reports Dmax and DC50 results from patent publication US20250206732A1, “COMPOUNDS AND METHODS FOR THE TARGETED DEGRADATION OF KRAS” (Arvinas Operations, Inc., priority 2022, published 2025).

One assay deals with T1, AsPC-1 HiBiT-KRASG12D (Homo sapiens, UniProt P01116, G12D).
T1 construct: insert the HiBiT tag onto the N-terminus of one or more of the endogenous KRAS alleles; endogenous in cells; host or cells: AsPC-1 (ATCC CRL-1682), CRISPR-Cas9 knock-in clone, one tagged allele
The experiment in a line: HiBiT degradation assay (G12D), AsPC-1 HiBiT-KRASG12D cells. The assay is classed as cell-based. Particulars: 24 hours treatment; for Dmax: ASPC1, AsPC-1 HiBiT-KRASG12D cells, maximum degradation observed; for DC50: AsPC-1 HiBiT-KRASG12D cells, HiBiT luminescence. The essentials:
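AsPC-1 cells (homozygous G12D) carrying a CRISPR knock-in N-terminal HiBiT tag on endogenous KRAS were treated with compounds for 24 hours at 37° C, 5% CO2, in triplicate. Alamar blue viability was read first, then cells were washed and lysed with Nano-Glo HiBiT reagent for 45 minutes before luminescence reading.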

For the next assay, the target named is T2, SW1573 HiBiT-KRASG12C (Homo sapiens, UniProt P01116, G12C).
T2 construct: expressed in transfected cells
T2 sequence (P01116 1-188 isoform P01116-2 G12C): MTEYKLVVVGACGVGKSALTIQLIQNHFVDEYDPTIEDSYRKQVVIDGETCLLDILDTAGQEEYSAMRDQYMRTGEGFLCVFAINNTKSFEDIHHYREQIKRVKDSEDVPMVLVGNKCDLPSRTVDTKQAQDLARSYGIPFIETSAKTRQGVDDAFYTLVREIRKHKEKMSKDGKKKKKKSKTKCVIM
The assay is described as follows: HiBiT degradation assay (G12C), SW1573 HiBiT-KRASG12C cells.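 For DC50: Letter grades: C is 1000 to 3000 nM and D is above 3000 nM.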 The assay is classed as cell-based. Particulars: 24 hours treatment; for DC50: HiBiT luminescence; for Dmax: maximum degradation observed. The gist of the method:
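SW1573 cells expressing N-terminal HiBiT-KRASG12C (clone E6) treated 24 h at 37 °C with 10 μM to 508 pM compound in 0.5% DMSO, triplicate. HiBiT lytic luminescence normalized to DMSO, 4-parameter fit gives DC50 and Dmax; points with ≥50% alamar blue viability loss excluded.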

T1 sequence (P01116 1-188 isoform P01116-2 G12D): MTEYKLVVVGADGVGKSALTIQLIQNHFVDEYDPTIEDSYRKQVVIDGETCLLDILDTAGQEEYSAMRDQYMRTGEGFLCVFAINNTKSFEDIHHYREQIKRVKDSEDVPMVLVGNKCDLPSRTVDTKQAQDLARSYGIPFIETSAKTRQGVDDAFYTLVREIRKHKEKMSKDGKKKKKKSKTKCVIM

Regarding `Cc1ncsc1-c1ccc([C@H](C)NC(=O)[C@@H]2C[C@@H](O)CN2C(=O)[C@@H](c2cc(OCC3CCN(CCOc4nc(N5CC6CCC(C5)N6)c5cnc(-c6cc(O)cc7cccc(Cl)c67)c(F)c5n4)CC3)no2)C(C)C)cc1` [Compound 40, (2S,4R)-1-[(2R)-2-(3-{[1-(2-{[7-(8-chloro-3-hydroxynaphthalen-1-yl)-4-{3,8-diazabicyclo[3.2.1]octan-3-yl}-8-fluoropyrido[4,3-d]pyrimidin-2-yl]oxy}ethyl)piperidin-4-yl]methoxy}-1,2-oxazol-5-yl)-3-methylbutanoyl]-4-hydroxy-N-[(1S)-1-[4-(4-methyl-1,3-thiazol-5-yl)phenyl]ethyl]pyrrolidine-2-carboxamide], on AsPC-1 HiBiT-KRASG12D, the Dmax lay within 80 to 100% and the DC50 was < 600 nM. At SW1573 HiBiT-KRASG12C, the DC50 is > 3000 nM.

For the molecule `Cc1ncsc1-c1ccc([C@H](C)NC(=O)[C@@H]2C[C@@H](O)CN2C(=O)[C@@H](c2cc(OCC3CCN(CCOc4nc(N5CC6CCC(C5)N6)c5cnc(-c6cc(O)cc(Cl)c6C(C)C)c(F)c5n4)CC3)no2)C(C)C)cc1` [Compound 41, (2S,4R)-1-[(2R)-2-[3-({1-[2-({7-[3-chloro-5-hydroxy-2-(propan-2-yl)phenyl]-4-{3,8-diazabicyclo[3.2.1]octan-3-yl}-8-fluoropyrido[4,3-d]pyrimidin-2-yl}oxy)ethyl]piperidin-4-yl}methoxy)-1,2-oxazol-5-yl]-3-methylbutanoyl]-4-hydroxy-N-[(1S)-1-[4-(4-methyl-1,3-thiazol-5-yl)phenyl]ethyl]pyrrolidine-2-carboxamide], the Dmax at AsPC-1 HiBiT-KRASG12D and on SW1573 HiBiT-KRASG12C was 20 to 60% each time. In addition, the results for the DC50 on AsPC-1 HiBiT-KRASG12D and on SW1573 HiBiT-KRASG12C were < 600 nM and > 3000 nM, respectively.

Turning to `CCc1cccc2cc(O)cc(-c3ncc4c(N5CCCCCC5)nc(OC[C@@]56CCCN5[C@H](COC(=O)N5CCN(c7cc([C@H](C(=O)N8C[C@H](O)C[C@H]8C(=O)N[C@@H](C)c8ccc(-c9scnc9C)cc8)C(C)C)on7)CC5)CC6)nc4c3F)c12` [Compound 42, [(3S,7aS)-7a-({[4-(azepan-1-yl)-7-(8-ethyl-3-hydroxynaphthalen-1-yl)-8-fluoropyrido[4,3-d]pyrimidin-2-yl]oxy}methyl)-hexahydro-1H-pyrrolizin-3-yl]methyl 4-{5-[(2R)-1-[(2S,4R)-4-hydroxy-2-{[(1S)-1-[4-(4-methyl-1,3-thiazol-5-yl)phenyl]ethyl]carbamoyl}pyrrolidin-1-yl]-3-methyl-1-oxobutan-2-yl]-1,2-oxazol-3-yl}piperazine-1-carboxylate], on AsPC-1 HiBiT-KRASG12D, the Dmax lay within 80 to 100% and the half-maximal degradation concentration (DC50) is < 600 nM. At SW1573 HiBiT-KRASG12C, the DC50 was ≤ 600 nM and the Dmax lay in the range of 80 to 100%.

For the molecule `Cc1ncsc1-c1ccc([C@H](C)NC(=O)[C@@H]2C[C@@H](O)CN2C(=O)[C@@H](c2cc(OCC3CCN(CCOc4nc(N5CC6CCC(C5)N6)c5cnc(-c6cc(O)cc(Cl)c6C6CC6)c(F)c5n4)CC3)no2)C(C)C)cc1` [Compound 43, (2S,4R)-1-[(2R)-2-(3-{[1-(2-{[7-(3-chloro-2-cyclopropyl-5-hydroxyphenyl)-4-{3,8-diazabicyclo[3.2.1]octan-3-yl}-8-fluoropyrido[4,3-d]pyrimidin-2-yl]oxy}ethyl)piperidin-4-yl]methoxy}-1,2-oxazol-5-yl)-3-methylbutanoyl]-4-hydroxy-N-[(1S)-1-[4-(4-methyl-1,3-thiazol-5-yl)phenyl]ethyl]pyrrolidine-2-carboxamide], the Dmax fell in the range of 80 to 100% on AsPC-1 HiBiT-KRASG12D and 20 to 60% on SW1573 HiBiT-KRASG12C. The DC50 is < 600 nM on AsPC-1 HiBiT-KRASG12D and > 3000 nM on SW1573 HiBiT-KRASG12C.

In the case of `CCc1cccc2cc(O)cc(-c3ncc4c(N5CCCCCC5)nc(OC[C@@]56CCCN5[C@H](COC(=O)N5CCN(c7cc([C@@H](C(=O)N8C[C@H](O)C[C@H]8C(=O)N[C@@H](C)c8ccc(-c9scnc9C)cc8)C(C)C)on7)CC5)CC6)nc4c3F)c12` [Compound 44, [(3S,7aS)-7a-({[4-(azepan-1-yl)-7-(8-ethyl-3-hydroxynaphthalen-1-yl)-8-fluoropyrido[4,3-d]pyrimidin-2-yl]oxy}methyl)-hexahydro-1H-pyrrolizin-3-yl]methyl 4-{5-[(2S)-1-[(2S,4R)-4-hydroxy-2-{[(1S)-1-[4-(4-methyl-1,3-thiazol-5-yl)phenyl]ethyl]carbamoyl}pyrrolidin-1-yl]-3-methyl-1-oxobutan-2-yl]-1,2-oxazol-3-yl}piperazine-1-carboxylate], on AsPC-1 HiBiT-KRASG12D, the Dmax was < 20% and the DC50 is < 600 nM. In addition, at SW1573 HiBiT-KRASG12C, the DC50 is > 3000 nM.

With `CCc1cccc2cc(O)cc(-c3ncc4c(N5CCCCCC5)nc(OC[C@]56CCCN5[C@@H](COC(=O)N5CCN(c7cc([C@H](C(=O)N8C[C@H](O)C[C@H]8C(=O)N[C@@H](C)c8ccc(-c9scnc9C)cc8)C(C)C)on7)CC5)CC6)nc4c3F)c12` [Compound 45, [(3R,7aR)-7a-({[4-(azepan-1-yl)-7-(8-ethyl-3-hydroxynaphthalen-1-yl)-8-fluoropyrido[4,3-d]pyrimidin-2-yl]oxy}methyl)-hexahydro-1H-pyrrolizin-3-yl]methyl 4-{5-[(2R)-1-[(2S,4R)-4-hydroxy-2-{[(1S)-1-[4-(4-methyl-1,3-thiazol-5-yl)phenyl]ethyl]carbamoyl}pyrrolidin-1-yl]-3-methyl-1-oxobutan-2-yl]-1,2-oxazol-3-yl}piperazine-1-carboxylate], at AsPC-1 HiBiT-KRASG12D, the Dmax was 80 to 100% and the DC50 is < 600 nM. Besides, on SW1573 HiBiT-KRASG12C, the DC50 was ≤ 600 nM and the maximal degradation (Dmax) lay within 60 to 80%.

On to `CCc1cccc2cc(O)cc(-c3ncc4c(N5CCCCCC5)nc(OC[C@]56CCCN5[C@@H](COC(=O)N5CCN(c7cc([C@@H](C(=O)N8C[C@H](O)C[C@H]8C(=O)N[C@@H](C)c8ccc(-c9scnc9C)cc8)C(C)C)on7)CC5)CC6)nc4c3F)c12` [Compound 46, [(3R,7aR)-7a-({[4-(azepan-1-yl)-7-(8-ethyl-3-hydroxynaphthalen-1-yl)-8-fluoropyrido[4,3-d]pyrimidin-2-yl]oxy}methyl)-hexahydro-1H-pyrrolizin-3-yl]methyl 4-{5-[(2S)-1-[(2S,4R)-4-hydroxy-2-{[(1S)-1-[4-(4-methyl-1,3-thiazol-5-yl)phenyl]ethyl]carbamoyl}pyrrolidin-1-yl]-3-methyl-1-oxobutan-2-yl]-1,2-oxazol-3-yl}piperazine-1-carboxylate], for which the DC50 on AsPC-1 HiBiT-KRASG12D and at SW1573 HiBiT-KRASG12C was > 3000 nM each time.

For `Cc1ncsc1-c1ccc([C@H](C)NC(=O)[C@@H]2C[C@@H](O)CN2C(=O)[C@@H](c2cc(OCC3CCN(CCOc4nc(N5CC6CCC(C5)N6)c5cnc(-c6c(OC(F)(F)F)ccc7[nH]ncc67)c(F)c5n4)CC3)no2)C(C)C)cc1` [Compound 47, (2S,4R)-1-[(2R)-2-{3-[(1-{2-[(4-{3,8-diazabicyclo[3.2.1]octan-3-yl}-8-fluoro-7-[5-(trifluoromethoxy)-1H-indazol-4-yl]pyrido[4,3-d]pyrimidin-2-yl)oxy]ethyl}piperidin-4-yl)methoxy]-1,2-oxazol-5-yl}-3-methylbutanoyl]-4-hydroxy-N-[(1S)-1-[4-(4-methyl-1,3-thiazol-5-yl)phenyl]ethyl]pyrrolidine-2-carboxamide], the DC50 on AsPC-1 HiBiT-KRASG12D and on SW1573 HiBiT-KRASG12C was > 3000 nM each time.

For the molecule `C#Cc1cccc2cc(O)cc(-c3ncc4c(N5CC6CCC(C5)N6)nc(OCCN5CCC(COc6cc([C@H](C(=O)N7C[C@H](O)C[C@H]7C(=O)N[C@@H](C)c7ccc(-c8scnc8C)cc7)C(C)C)on6)CC5)nc4c3F)c12` [Compound 48, (2S,4R)-1-[(2R)-2-{3-[(1-{2-[(4-{3,8-diazabicyclo[3.2.1]octan-3-yl}-7-(8-ethynyl-3-hydroxynaphthalen-1-yl)-8-fluoropyrido[4,3-d]pyrimidin-2-yl)oxy]ethyl}piperidin-4-yl)methoxy]-1,2-oxazol-5-yl}-3-methylbutanoyl]-4-hydroxy-N-[(1S)-1-[4-(4-methyl-1,3-thiazol-5-yl)phenyl]ethyl]pyrrolidine-2-carboxamide], at AsPC-1 HiBiT-KRASG12D, the Dmax lay within 80 to 100% and the DC50 is < 600 nM. For the same molecule, the DC50 at SW1573 HiBiT-KRASG12C was > 3000 nM.
